US10294202B2, “Pyrrolidinones as herbicides” (FMC Corporation, priority 2013, dated 2019)

Columns and labels:
morningglory = test: Test E preemergence herbicide test; type: in vivo, Ipomoea coccinea; set-up: key: 0 = no effect, 100 = complete control
Description: Seeds of plant species selected from corn (Zea mays), soybean (Glycine max), velvetleaf (Abutilon theophrasti), lambsquarters (Chenopodium album), wild poinsettia (Euphorbia heterophylla), pigweed, palmer (palmer pigweed, Amaranthus palmeri), waterhemp (common waterhemp, Amaranthus rudis), surinam grass (Brachiaria decumbens), crabgrass, large (large crabgrass, Digitaria sanguinalis), crabgrass, Brazil (Brazilian crabgrass, Digitaria horizontalis), panicum, fall (fall panicum, Panicum dichotomiflorum), foxtail, giant (giant foxtail, Setaria faberii), foxtail, green (green foxtail, Setaria viridis), goosegrass (Eleusine indica), johnsongrass (Sorghum halepense), ragweed (common ragweed, Ambrosia elatior), barnyardgrass (Echinochloa crus-galli), sandbur (southern sandbur, Cenchrus echinatus), arrowleaf […] rhombifolia), ryegrass, Italian (Italian ryegrass, Lolium multiflorum), dayflower, VA (Virginia dayflower, Commelina virginica), field bindweed (Convolvulus arvensis), morningglory (Ipomoea coccinea), nightshade (eastern black nightshade, Solanum ptycanthum), kochia (Kochia scoparia), nutsedge, yellow (yellow nutsedge, Cyperus esculentus), cocklebur (common cocklebur, Xanthium strumarium), smartweed (ladysthumb smartweed, Polygonum Persicaria) and beggarticks (hairy beggarticks, Bidens pilosa), were planted into a silt loam soil and treated preemergence with test chemicals formulated in a non-phytotoxic solvent mixture which included a surfactant. Treated plants and controls were maintained in a greenhouse for 21 days, after which time all species were compared to controls and visually evaluated. Plant response ratings, summarized in Table E, are based on a scale of 0 to 100 where 0 is no effect and 100 is complete control. A dash (-) response means no test result.

speedwell = test: Test D pre-/postemergence herbicide test; type: in vivo, Veronica persica; conditions: for Plant response rating: Postemergence, Speedwell, scale 0 to 100; for Plant response rating, Speedwell: Preemergence, scale 0 to 100 (0 no effect, 100 complete control)
Description: (§1) Seeds of plant species selected from bluegrass (annual bluegrass, Poa annua), blackgrass (Alopecurus myosuroides), canarygrass (littleseed canarygrass, Phalaris minor), chickweed (common chickweed, Stellaria media), galium (catchweed bedstraw, Galium aparine), bromegrass, downy (downy bromegrass, Bromus tectorum), field poppy (Papaver rhoeas), field violet (Viola arvensis), foxtail, green (green foxtail, Setaria viridis), deadnettle (henbit deadnettle, Lamium amplexicaule), ryegrass, Italian (Italian ryegrass, Lolium multiflorum), kochia (Kochia scoparia), lambsquarters (Chenopodium album), oilseed rape (Brassica napus), pigweed (Amaranthus retroflexus), chamomile (scentless chamomile, Matricaria inodora), Russian thistle (Salsola kali), speedwell (bird's-eye speedwell, Veronica persica), barley, spring (spring barley, Hordeum vulgare), wheat, spring (spring wheat, Triticum aestivum), buckwheat, wild (wild buckwheat, Polygonum convolvulus), mustard, wild (wild mustard, Sinapis arvensis), oat, wild (wild oat, Avena fatua), radish, wild (wild radish, Raphanus raphanistrum), […]), barley, winter (winter barley, Hordeum vulgare), and wheat, winter (winter wheat, Triticum aestivum) were planted into a silt loam soil and treated preemergence with test chemicals formulated in a non-phytotoxic solvent mixture which included a surfactant. At the same time, these species were planted in pots containing Redi-Earth® planting medium (Scotts Company, 14111 Scottslawn Road, Marysville, Ohio 43041) comprising spaghnum peat moss, vermiculite, wetting agent and starter nutrients and treated with postemergence applications of the test chemicals formulated in the same manner. Plants ranged in height from 2 to 18 cm (1- to 4-leaf stage). Treated plants and controls were maintained in a controlled growth environment for 7 to 21 days after which time all species were compared to controls and visually evaluated. Plant response ratings, summarized in Table D, are based on a scale of 0 to 100 where 0 is no effect and 100 is complete control. A dash (-) response means no test result.

oat, wild = test: Test D pre-/postemergence herbicide test; type: in vivo, Avena fatua; conditions: for Plant response rating: Postemergence, Oat, Wild, scale 0 to 100; for Plant response rating, Oat, Wild: Preemergence, scale 0 to 100 (0 no effect, 100 complete control)
Description: as §1

windgrass = test: Test D pre-/postemergence herbicide test; type: in vivo, Apera spica-venti; conditions: for Plant response rating: Postemergence, Windgrass, scale 0 to 100; for Plant response rating, Windgrass: Preemergence, scale 0 to 100 (0 no effect, 100 complete control)
Description: as §1

field violet = test: Test D pre-/postemergence herbicide test; type: in vivo, Viola arvensis; conditions: for Plant response rating: Field Violet, scale 0 to 100; for Plant response rating, Field Violet: scale 0 to 100 (0 no effect, 100 complete control)
Description: as §1

Structure (SMILES): O=C1NCC(c2ccc(C(F)(F)F)cc2)C1C(=O)Nc1ccc(F)c(F)c1F (centres unmarked) [Compound 232]
- Plant response rating, Morningglory (morningglory; 31 g ai/ha): 0
- Plant response rating, Morningglory (morningglory; 62 g ai/ha): 0
- Plant response rating, Morningglory (morningglory; 125 g ai/ha): 0
- Plant response rating, Morningglory (morningglory; 250 g ai/ha): 35

Structure (SMILES): O=C1NCC(c2ccc(F)c(F)c2)C1C(=O)Nc1cccc(F)c1 (racemic) [Compound 12]
- Plant response rating (speedwell; 16 g ai/ha): 0
- Plant response rating (speedwell; 31 g ai/ha): 0
- Plant response rating (speedwell; 62 g ai/ha): 10
- Plant response rating (speedwell; 125 g ai/ha): 10
- Plant response rating (speedwell; 250 g ai/ha): 25
- Plant response rating, Speedwell (speedwell; 31 g ai/ha): 0
- Plant response rating, Speedwell (speedwell; 62 g ai/ha): 0
- Plant response rating, Speedwell (speedwell; 125 g ai/ha): 0
- Plant response rating, Speedwell (speedwell; 250 g ai/ha): 100
- Plant response rating, Speedwell (speedwell; 16 g ai/ha): 0
- Plant response rating (oat, wild; 16 g ai/ha): 0
- Plant response rating (oat, wild; 31 g ai/ha): 0
- Plant response rating (oat, wild; 62 g ai/ha): 10
- Plant response rating (oat, wild; 125 g ai/ha): 15
- Plant response rating (oat, wild; 250 g ai/ha): 20
- Plant response rating, Oat, Wild (oat, wild; 31 g ai/ha): 0
- Plant response rating, Oat, Wild (oat, wild; 62 g ai/ha): 0
- Plant response rating, Oat, Wild (oat, wild; 125 g ai/ha): 0
- Plant response rating, Oat, Wild (oat, wild; 250 g ai/ha): 0
- Plant response rating, Oat, Wild (oat, wild; 16 g ai/ha): 0
- Plant response rating (windgrass; 16 g ai/ha): 0
- Plant response rating (windgrass; 31 g ai/ha): 0
- Plant response rating (windgrass; 62 g ai/ha): 0
- Plant response rating (windgrass; 125 g ai/ha): 0
- Plant response rating (windgrass; 250 g ai/ha): 5
- Plant response rating, Windgrass (windgrass; 31 g ai/ha): 0
- Plant response rating, Windgrass (windgrass; 62 g ai/ha): 0
- Plant response rating, Windgrass (windgrass; 125 g ai/ha): 0
- Plant response rating, Windgrass (windgrass; 250 g ai/ha): 0
- Plant response rating, Windgrass (windgrass; 16 g ai/ha): 0
- Plant response rating (field violet; Postemergence, 16 g ai/ha): 0
- Plant response rating (field violet; Postemergence, 31 g ai/ha): 0
- Plant response rating (field violet; Postemergence, 62 g ai/ha): 30
- Plant response rating (field violet; Postemergence, 125 g ai/ha): 35
- Plant response rating (field violet; Postemergence, 250 g ai/ha): 40
- Plant response rating, Field Violet (field violet; Preemergence, 31 g ai/ha): 0
- Plant response rating, Field Violet (field violet; Preemergence, 62 g ai/ha): 0
- Plant response rating, Field Violet (field violet; Preemergence, 16 g ai/ha): 0
- Plant response rating (field violet; Preemergence, 125 g ai/ha): 0
- Plant response rating (field violet; Preemergence, 250 g ai/ha): 0

Structure (SMILES): O=C1NCC(c2ccc(F)cc2)C1C(=O)Nc1ccccc1F (racemic) [Compound 16]
- Plant response rating, Morningglory (morningglory; 16 g ai/ha): 0
- Plant response rating, Morningglory (morningglory; 31 g ai/ha): 0
- Plant response rating, Morningglory (morningglory; 62 g ai/ha): 0
- Plant response rating, Morningglory (morningglory; 125 g ai/ha): 0
- Plant response rating, Morningglory (morningglory; 250 g ai/ha): 0

Structure (SMILES): O=C1NCC(c2cc(F)c(F)c(F)c2)C1C(=O)Nc1ccccc1C(F)(F)F (racemic) [Compound 33]
- Plant response rating (speedwell; 16 g ai/ha): 0
- Plant response rating (speedwell; 31 g ai/ha): 0
- Plant response rating (speedwell; 62 g ai/ha): 0
- Plant response rating (speedwell; 125 g ai/ha): 0
- Plant response rating (speedwell; 250 g ai/ha): 10
- Plant response rating (oat, wild; 16 g ai/ha): 0
- Plant response rating (oat, wild; 31 g ai/ha): 0
- Plant response rating (oat, wild; 62 g ai/ha): 0
- Plant response rating (oat, wild; 125 g ai/ha): 0
- Plant response rating (oat, wild; 250 g ai/ha): 0
- Plant response rating (windgrass; 16 g ai/ha): 0
- Plant response rating (windgrass; 31 g ai/ha): 0
- Plant response rating (windgrass; 62 g ai/ha): 0
- Plant response rating (windgrass; 125 g ai/ha): 0
- Plant response rating (windgrass; 250 g ai/ha): 0
- Plant response rating (field violet; Postemergence, 16 g ai/ha): 0
- Plant response rating (field violet; Postemergence, 31 g ai/ha): 0
- Plant response rating (field violet; Postemergence, 62 g ai/ha): 0
- Plant response rating (field violet; Postemergence, 125 g ai/ha): 0
- Plant response rating (field violet; Postemergence, 250 g ai/ha): 0

Structure (SMILES): O=C1NCC(c2cccc(C(F)(F)F)c2)C1C(=O)Nc1cccc(F)c1F (centres unmarked) [Compound 241]
- Plant response rating, Speedwell (speedwell; 31 g ai/ha): 10
- Plant response rating, Speedwell (speedwell; 62 g ai/ha): 35
- Plant response rating, Speedwell (speedwell; 125 g ai/ha): 70
- Plant response rating, Speedwell (speedwell; 250 g ai/ha): 85
- Plant response rating, Oat, Wild (oat, wild; 31 g ai/ha): 15
- Plant response rating, Oat, Wild (oat, wild; 62 g ai/ha): 15
- Plant response rating, Oat, Wild (oat, wild; 125 g ai/ha): 20
- Plant response rating, Oat, Wild (oat, wild; 250 g ai/ha): 55
- Plant response rating, Windgrass (windgrass; 31 g ai/ha): 65
- Plant response rating, Windgrass (windgrass; 62 g ai/ha): 90
- Plant response rating, Windgrass (windgrass; 125 g ai/ha): 95
- Plant response rating, Windgrass (windgrass; 250 g ai/ha): 98
- Plant response rating, Field Violet (field violet; Preemergence, 31 g ai/ha): 15
- Plant response rating, Field Violet (field violet; Preemergence, 62 g ai/ha): 15
- Plant response rating, Field Violet (field violet; Preemergence, 125 g ai/ha): 20
- Plant response rating (field violet; Preemergence, 250 g ai/ha): 30

Structure (SMILES): O=C1NCC(c2cc(F)c(F)c(F)c2)C1C(=O)Nc1ccccc1F (racemic) [Compound 34]
- Plant response rating (speedwell; 16 g ai/ha): 0
- Plant response rating (speedwell; 31 g ai/ha): 0
- Plant response rating (speedwell; 62 g ai/ha): 0
- Plant response rating (speedwell; 125 g ai/ha): 0
- Plant response rating (speedwell; 250 g ai/ha): 30
- Plant response rating (oat, wild; 16 g ai/ha): 0
- Plant response rating (oat, wild; 31 g ai/ha): 0
- Plant response rating (oat, wild; 62 g ai/ha): 0
- Plant response rating (oat, wild; 125 g ai/ha): 0
- Plant response rating (oat, wild; 250 g ai/ha): 0
- Plant response rating (windgrass; 16 g ai/ha): 0
- Plant response rating (windgrass; 31 g ai/ha): 0
- Plant response rating (windgrass; 62 g ai/ha): 0
- Plant response rating (windgrass; 125 g ai/ha): 0
- Plant response rating (windgrass; 250 g ai/ha): 0
- Plant response rating (field violet; Postemergence, 16 g ai/ha): 0
- Plant response rating (field violet; Postemergence, 31 g ai/ha): 0
- Plant response rating (field violet; Postemergence, 62 g ai/ha): 0
- Plant response rating (field violet; Postemergence, 125 g ai/ha): 0
- Plant response rating (field violet; Postemergence, 250 g ai/ha): 20

Structure (SMILES): O=C1NCC(c2cccc(Br)c2)C1C(=O)Nc1ccccc1F (centres unmarked) [Compound 66]
- Plant response rating, Morningglory (morningglory; 16 g ai/ha): 0
- Plant response rating, Morningglory (morningglory; 31 g ai/ha): 0
- Plant response rating, Morningglory (morningglory; 62 g ai/ha): 0
- Plant response rating, Morningglory (morningglory; 125 g ai/ha): 0
- Plant response rating, Morningglory (morningglory; 250 g ai/ha): 0
